Reference: the NIST ThermoML archive (doi:10.1016/j.tca.2011.10.030)

Experiment: xn = mol fraction of the nth substance listed
Settings: 101 kPa, Liquid; for viscosity: Capillary tube (Ostwald / Ubbelohde) method; for mass density: Vibrating tube method

CCCCCCn1cc[n+](C)c1.F[B-](F)(F)F [1-hexyl-3-methylimidazolium tetrafluoroborate] + CCCO
Settings	mass density, 293.15 K [kg/m3]	mass density, 303.15 K [kg/m3]	mass density, 313.15 K [kg/m3]	mass density, 323.15 K [kg/m3]	mass density, 333.15 K [kg/m3]	viscosity, 293.15 K [mPa·s]	viscosity, 303.15 K [mPa·s]	viscosity, 313.15 K [mPa·s]	viscosity, 323.15 K [mPa·s]	viscosity, 333.15 K [mPa·s]
x1 = 0.1004	–	–	–	–	–	–	–	1.999	–	–
x1 = 0.1006	895.6	887.71	879.74	871.67	863.47	3.744	2.705	–	1.502	1.123
x1 = 0.199	955.99	948.28	940.53	932.73	924.86	6.294	4.518	3.364	2.585	1.99
x1 = 0.3002	1001.98	994.41	986.83	979.23	971.61	10.08	7.158	5.324	4.056	3.14
x1 = 0.4993	1065.02	1057.71	1050.43	1043.18	1035.95	23.7	16.37	11.84	8.808	6.76
x1 = 0.6309	1094.51	1087.38	1080.27	1073.19	1066.15	41.96	27.85	19.44	14.25	10.74
x1 = 0.7571	1116.98	1110.01	1103.05	1096.1	1089.2	73.7	46.65	31.26	21.97	16.09
x1 = 0.8894	1135.92	1129.14	1122.32	1115.51	1108.71	139.42	82.45	52.28	35.15	24.67
x1 = 1	1149.24	1142.48	1135.79	1129.08	1122.37	232.65	130.02	78.24	50.3	34.02
